Experiments:
Type in all cases: cell-based
[1] = molecular target: T1, human EDG8 (S1PR5) receptor (Homo sapiens, UniProt Q9H228); assay: Aequorin assay, agonist potency, CHO-A21-EDG8#12 cells; conditions: agonist mode, aequorin luminescence; read-out: S1P5 EC50 range #
T1 construct: carries the transgenes human EDG8 (S1PR5) receptor (Acession number NP_110387.1); expressed in transfected cells; host or cells: CHO-A21-EDG8#12 (CHO clone co-expressing mitochondrial aequorin and chimaeric Gaqi5)
Outline: (§1)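 CHO cells coexpressing receptor, mitochondrial aequorin and Gαqi5 (S1P3 pool: GNA16) were loaded overnight at RT with 5 μM coelenterazine h in 0.1% fatty-acid-free BSA buffer. Cells were injected onto compound, luminescence recorded 90 s and integrated, normalised to digitonin or 20 μM ATP; sigmoidal fit.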

[2] = molecular target: T2, human EDG1 (S1PR1) receptor (Homo sapiens, UniProt P21453); assay: Aequorin assay, agonist potency, CHO-A21-Edg1#17 cells; conditions: agonist mode, aequorin luminescence; read-out: S1P1 EC50
T2 construct: expressed in transfected cells; host or cells: CHO-A21-Edg1#17 (CHO clone co-expressing mitochondrial aequorin and chimaeric Gaqi5)
T2 sequence (P21453 whole entry): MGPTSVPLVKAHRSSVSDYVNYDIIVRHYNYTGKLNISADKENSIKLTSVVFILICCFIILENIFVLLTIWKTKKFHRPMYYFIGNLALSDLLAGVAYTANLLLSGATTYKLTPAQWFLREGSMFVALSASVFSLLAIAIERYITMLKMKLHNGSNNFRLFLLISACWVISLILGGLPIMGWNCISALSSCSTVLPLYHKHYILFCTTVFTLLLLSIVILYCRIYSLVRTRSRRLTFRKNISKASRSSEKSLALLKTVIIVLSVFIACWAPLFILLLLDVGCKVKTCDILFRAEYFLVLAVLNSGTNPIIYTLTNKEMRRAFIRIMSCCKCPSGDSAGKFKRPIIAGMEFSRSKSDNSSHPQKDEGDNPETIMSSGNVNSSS
Outline: as §1

S1P4 = molecular target: T3, S1P4 (Homo sapiens, UniProt O95977); assay: Aequorin assay, agonist potency, S1P4; conditions: agonist mode, aequorin luminescence
T3 sequence (O95977 1-384): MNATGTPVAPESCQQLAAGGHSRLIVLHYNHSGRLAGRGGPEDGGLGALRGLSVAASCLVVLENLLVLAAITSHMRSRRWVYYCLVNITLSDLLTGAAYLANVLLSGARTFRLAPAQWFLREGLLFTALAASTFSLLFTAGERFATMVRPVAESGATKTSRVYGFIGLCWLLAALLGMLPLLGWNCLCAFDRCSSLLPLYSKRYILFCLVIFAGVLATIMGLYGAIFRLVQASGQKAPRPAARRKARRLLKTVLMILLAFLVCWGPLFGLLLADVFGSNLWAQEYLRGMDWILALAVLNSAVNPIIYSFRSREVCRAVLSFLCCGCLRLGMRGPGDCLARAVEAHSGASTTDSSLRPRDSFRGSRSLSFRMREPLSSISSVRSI
Outline: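 Aequorin luminescence read over 90 s after adding coelenterazine h–loaded cells (5 μM, overnight, RT) to test compound in phenol red-free DMEM/F12 buffer containing 0.1% fatty acid-free BSA. Responses integrated, scaled to the 100% signal from 100 μM digitonin or 20 μM ATP, and fitted to a sigmoidal dose-response model.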

T1 sequence (Q9H228 whole entry): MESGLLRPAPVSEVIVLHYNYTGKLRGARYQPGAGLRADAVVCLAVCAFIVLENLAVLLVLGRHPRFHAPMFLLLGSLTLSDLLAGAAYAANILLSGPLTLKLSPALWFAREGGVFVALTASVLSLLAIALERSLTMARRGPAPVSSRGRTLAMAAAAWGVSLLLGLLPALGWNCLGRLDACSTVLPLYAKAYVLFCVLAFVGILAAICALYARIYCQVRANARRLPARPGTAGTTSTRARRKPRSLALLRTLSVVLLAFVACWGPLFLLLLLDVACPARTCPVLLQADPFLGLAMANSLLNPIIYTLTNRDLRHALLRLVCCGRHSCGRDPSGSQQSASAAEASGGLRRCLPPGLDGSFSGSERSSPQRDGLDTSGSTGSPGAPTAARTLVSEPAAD

EC50 [1]	EC50 [2]	EC50 (S1P4)	SMILES
≤ 10 nM	< 1000 nM	> 1000 nM	CCOc1ccc(C#Cc2ccc3c(c2)CC2(C3)CN(C3CC(C(=O)O)C3)C2)cc1F (stereo not drawn) [Example 100, 3-(5′-((4-ethoxy-3-fluorophenyl)ethynyl)-1′,3′-dihydrospiro[azetidine-3,2′-inden]-1-yl)cyclobutanecarboxylic acid]
1000 to 10000 nM	> 1000 nM	< 1000 nM	COc1ccc(C#Cc2ccc3c(c2)CC2(C3)CN(C3CC(C(=O)O)C3)C2)c(C)c1 (stereo not drawn) [Example 101, 3-(5′-((4-methoxy-2-methylphenyl)ethynyl)-1′,3′-dihydrospiro[azetidine-3,2′-inden]-1-yl)cyclobutanecarboxylic acid]
≤ 10 nM	> 1000 nM	< 1000 nM	CC1CCC(C#Cc2ccc3c(c2)CC2(C3)CN(C3CC(C(=O)O)C3)C2)CC1 (stereo not drawn) [Example 102, 3-(5′-((4-methylcyclohexyl)ethynyl)-1′,3′-dihydrospiro[azetidine-3,2′-inden]-1-yl)cyclobutanecarboxylic acid]
≤ 10 nM	< 1000 nM	< 1000 nM	CC(Oc1ccc(C#Cc2ccc3c(c2)CC2(C3)CN(C3CC(C(=O)O)C3)C2)cn1)C(F)(F)F (stereo not drawn) [Example 103, 3-(5′-((6-((1,1,1-trifluoropropan-2-yl)oxy)pyridin-3-yl)ethynyl)-1′,3′-dihydrospiro[azetidine-3,2′-inden]-1-yl)cyclobutanecarboxylic acid]
≤ 10 nM	> 1000 nM	< 1000 nM	O=C(O)C1CC(N2CC3(Cc4ccc(OC5CCc6ccccc65)cc4C3)C2)C1 (stereo not drawn) [Example 104, 3-(5′-((2,3-dihydro-1H-inden-1-yl)oxy)-1′,3′-dihydrospiro[azetidine-3,2′-inden]-1-yl)cyclobutanecarboxylic acid]
1000 to 10000 nM	> 1000 nM	< 1000 nM	O=C(O)C1CC(N2CC3(Cc4ccc(OCCc5ccccc5C(F)(F)F)cc4C3)C2)C1 (stereo not drawn) [Example 105, 3-(5′-(2-(trifluoromethyl)phenethoxy)-1′,3′-dihydrospiro[azetidine-3,2′-inden]-1-yl)cyclobutanecarboxylic acid]
≤ 10 nM	< 1000 nM	< 1000 nM	O=C(O)C1CC(N2CC3(Cc4ccc(OC5CCc6cccc(Cl)c65)cc4C3)C2)C1 (stereo not drawn) [Example 106, 3-(5′-((7-chloro-2,3-dihydro-1H-inden-1-yl)oxy)-1′,3′-dihydrospiro[azetidine-3,2′-inden]-1-yl)cyclobutanecarboxylic acid]
100 to 1000 nM	> 1000 nM	> 1000 nM	CCOc1ccc(C#Cc2ccc3c(c2)CC2(C3)CN(CC3(C(=O)O)CC3)C2)cc1 [Example 112, 1-((5′-((4-ethoxyphenyl)ethynyl)-1′,3′-dihydrospiro[azetidine-3,2′-inden]-1-yl)methyl)cyclopropanecarboxylic acid]
≤ 10 nM	< 1000 nM	> 1000 nM	CC(C)Oc1ccc(C#Cc2ccc3c(c2)CC2(C3)CN(CC3(C(=O)O)CC3)C2)cc1 [Example 113, 1-((5′-((4-isopropoxyphenyl)ethynyl)-1′,3′-dihydrospiro[azetidine-3,2′-inden]-1-yl)methyl)cyclopropanecarboxylic acid]
100 to 1000 nM	> 1000 nM	> 1000 nM	CC(C)Oc1ccc(C#Cc2ccc3c(c2)CC2(C3)CN(CC3(C(=O)O)CC3)C2)cn1 [Example 114, 1-((5′-((6-isopropoxypyridin-3-yl)ethynyl)-1′,3′-dihydrospiro[azetidine-3,2′-inden]-1-yl)methyl)cyclopropanecarboxylic acid]
10 to 100 nM	> 1000 nM	> 1000 nM	O=C(O)C1(CN2CC3(Cc4ccc(C#Cc5ccc(OC6CCCC6)nc5)cc4C3)C2)CC1 [Example 116, 1-((5′-((6-(cyclopentyloxy)pyridin-3-yl)ethynyl)-1′,3′-dihydrospiro[azetidine-3,2′-inden]-1-yl)methyl)cyclopropanecarboxylic acid]
≤ 10 nM	< 1000 nM	> 1000 nM	CC(Oc1ccc(C#Cc2ccc3c(c2)CC2(C3)CN(CC3(C(=O)O)CC3)C2)cn1)C(F)(F)F (stereo not drawn) [Example 117, 1-((5′-((6-((1,1,1-trifluoropropan-2-yl)oxy)pyridin-3-yl)ethynyl)-1′,3′-dihydrospiro[azetidine-3,2′-inden]-1-yl)methyl)cyclopropanecarboxylic acid]
1000 to 10000 nM	> 1000 nM	< 1000 nM	COc1ccc(C#Cc2ccc3c(c2)CC2(C3)CN(CC3(C(=O)O)CC3)C2)c(C)c1 [Example 118, 1-((5′-((4-methoxy-2-methylphenyl)ethynyl)-1′,3′-dihydrospiro[azetidine-3,2′-inden]-1-yl)methyl)cyclopropanecarboxylic acid]
1000 to 10000 nM	> 1000 nM	> 1000 nM	CC(C)Oc1ccc(CCc2ccc3c(c2)CC2(C3)CN(CC3(C(=O)O)CC3)C2)cn1 [Example 119, 1-((5′-(2-(6-isopropoxypyridin-3-yl)ethyl)-1′,3′-dihydrospiro[azetidine-3,2′-inden]-1-yl)methyl)cyclopropanecarboxylic acid]
1000 to 10000 nM	> 1000 nM	< 1000 nM	CCOc1c(F)cc(COc2ccc3c(c2)CC2(C3)CN(CC3(C(=O)O)CC3)C2)cc1F [Example 120, 1-((5′-((4-ethoxy-3,5-difluorobenzyl)oxy)-1′,3′-dihydrospiro[azetidine-3,2′-inden]-1-yl)methyl)cyclopropanecarboxylic acid]
1000 to 10000 nM	> 1000 nM	> 1000 nM	COc1ccc(COc2ccc3c(c2)CC2(C3)CN(CC3(C(=O)O)CC3)C2)c(C)n1 [Example 121, 1-((5′-((6-methoxy-2-methylpyridin-3-yl)methoxy)-1′,3′-dihydrospiro[azetidine-3,2′-inden]-1-yl)methyl)cyclopropanecarboxylic acid]
1000 to 10000 nM	> 1000 nM	< 1000 nM	CCOc1cc(F)c(COc2ccc3c(c2)CC2(C3)CN(CC3(C(=O)O)CC3)C2)c(F)c1 [Example 122, 1-((5′-((4-ethoxy-2,6-difluorobenzyl)oxy)-1′,3′-dihydrospiro[azetidine-3,2′-inden]-1-yl)methyl)cyclopropanecarboxylic acid]
1000 to 10000 nM	> 1000 nM	< 1000 nM	CCOc1ccc(COc2ccc3c(c2)CC2(C3)CN(CC3(C(=O)O)CC3)C2)c(F)c1F [Example 123, 1-((5′-((4-ethoxy-2,3-difluorobenzyl)oxy)-1′,3′-dihydrospiro[azetidine-3,2′-inden]-1-yl)methyl)cyclopropanecarboxylic acid]
1000 to 10000 nM	> 1000 nM	< 1000 nM	O=C(O)C1(CN2CC3(Cc4ccc(OCc5cc(Cl)cnc5Cl)cc4C3)C2)CC1 [Example 124, 1-((5′-((2,5-dichloropyridin-3-yl)methoxy)-1′,3′-dihydrospiro[azetidine-3,2′-inden]-1-yl)methyl)cyclopropanecarboxylic acid]
10 to 100 nM	> 1000 nM	< 1000 nM	O=C(O)C1(CN2CC3(Cc4ccc(OCc5cccc6c5CCC6)cc4C3)C2)CC1 [Example 125, 1-((5′-((2,3-dihydro-1H-inden-4-yl)methoxy)-1′,3′-dihydrospiro[azetidine-3,2′-inden]-1-yl)methyl)cyclopropanecarboxylic acid]
